Patent publication US11345678B2, “Benzopyrazole compound used as RHO kinase inhibitor” (MEDSHINE DISCOVERY INC., priority 2018, dated 2022)
pIC50: −log10 of the molar value.

Assays:
[1] = molecular target: ROCK2 (Homo sapiens (Human), UniProt O75116); experiment: In vitro inhibitory activity against ROCK protein kinase (33P-ATP filter-binding), ROCK2; type: biochemical; conditions: 1 nM ROCK protein kinase, 20 μM Long S6 Kinase substrate peptide
Description: (§1) 1. In Vitro Evaluation of the Inhibitory Activity Against ROCK Protein Kinase
(§2) Experimental purpose: to detect the inhibitory IC50 value of the compound against ROCK protein kinase.
(§3) Assay buffer solution: 20 mM 4-hydroxyethylpiperazine ethanesulfonic acid (pH 7.5), 10 mM magnesium chloride, 1 mM ethylene glycol-bis-(2-aminoethyl)tetraacetic acid, 0.02% polyethylene glycol monododecyl ether, 0.02 mg/mL bovine serum albumin, 0.1 mM sodium vanadate, 2 mM dithiothreitol, 1% DMSO.
(§4) The freshly prepared buffer solution was added to ROCK protein kinase substrate (Long S6 Kinase substrate peptide), at a concentration of 20 μM, then 1 nM ROCK protein kinase was added thereto and stirred evenly. Echo550 was used to add a series of DMSO dilutions containing the test compound (starting from 10 μM, serially diluted by 3 times), the solution was pre-incubated at room temperature for 20 minutes, then ^33P-ATP (radiation intensity 10 μCi/μL) was added to initiate the reaction, and the reaction was performed at room temperature for two hours. Then the solution was filtered by P81 ion exchange paper (Whatman #3698-915) and washed with 0.75% phosphoric acid. The radiation intensity was determined by Filter-Binding method.
(§5) The protein kinase inhibitory activity of the compound was expressed as the remaining protein kinase activity relative to the blank substrate (simply DMSO). Prism software package (GraphPad Software, San Diego Calif., USA) was used to calculate IC50 value and the curve.

[2] = Pharmacokinetics in SD rats (intravenous injection and oral administration); type: in vivo; conditions: rat, plasma, male SD rats; for clearance / half-life / Vd: intravenous 1 mg/kg; for clearance: read-out: Clearance rate CL; for half-life: read-out: Half-life T1/2 (IV) (converted); for Vd: read-out: Tissue distribution Vdss; for bioavailability: oral 2 mg/kg vs intravenous 1 mg/kg, read-out: Bioavailability F; for AUC(0-t) / Cmax: oral 2 mg/kg; for AUC(0-t): read-out: Area under the drug-time curve AUC0-last PO; for Cmax: read-out: Peak concentration Cmax
Description: 4. Evaluation of the Pharmacokinetics of the Compound
Experimental purpose: to study the pharmacokinetics of the compounds in SD rats in vivo
SD rat (male, 7 to 10 weeks old, WTLH/SLAC)
The rodent pharmacokinetic characteristics of the compounds after intravenous injection and oral administration were tested by standard protocols. In the experiment, the candidate compounds were formulated into 0.2 mg/mL clear solutions and were given to the rats by a single intravenous injection and oral administration. The vehicles of the intravenous injection and oral administration were both 5% DMSO/95% (10% hydroxypropyl P-cyclodextrin) aqueous solution. This project used four male SD rats and two of them were administered by intravenous injection at a dosage of 1 mg/kg, plasma samples were collected at 0.0833, 0.25, 0.5, 1, 2, 4, 6, 8, and 24 hours after administration, the other two rats were administered orally and intragastrically at a dosage of 2 mg/kg, plasma samples were collected at 0.25, 0.5, 1, 2, 3, 4, 6, 8, 24 hours after administration. The whole blood samples were collected within 24 hours and centrifuged at 3000 g for 15 minutes, and the supernatants were separated to give plasma samples. The plasma samples were added with an acetonitrile solution containing internal standard to precipitate protein, mixed thoroughly and centrifuged, and the supernatants were taken for injection. The blood drug concentration was quantitatively analyzed by LC-MS/MS analysis method, and the pharmacokinetic parameters (such as peak concentration (Cmax), clearance rate (CL), half-life (T1/2), […] (Vdss), area under the drug-time curve (AUC0-last), and bioavailability (F), etc.) were calculated.

[3] = molecular target: ROCK1 (Homo sapiens (Human), UniProt Q13464); experiment: In vitro inhibitory activity against ROCK protein kinase (33P-ATP filter-binding), ROCK1; type: biochemical; conditions: 1 nM ROCK protein kinase, 20 μM Long S6 Kinase substrate peptide
Chain of ROCK1 (Q13464 whole entry): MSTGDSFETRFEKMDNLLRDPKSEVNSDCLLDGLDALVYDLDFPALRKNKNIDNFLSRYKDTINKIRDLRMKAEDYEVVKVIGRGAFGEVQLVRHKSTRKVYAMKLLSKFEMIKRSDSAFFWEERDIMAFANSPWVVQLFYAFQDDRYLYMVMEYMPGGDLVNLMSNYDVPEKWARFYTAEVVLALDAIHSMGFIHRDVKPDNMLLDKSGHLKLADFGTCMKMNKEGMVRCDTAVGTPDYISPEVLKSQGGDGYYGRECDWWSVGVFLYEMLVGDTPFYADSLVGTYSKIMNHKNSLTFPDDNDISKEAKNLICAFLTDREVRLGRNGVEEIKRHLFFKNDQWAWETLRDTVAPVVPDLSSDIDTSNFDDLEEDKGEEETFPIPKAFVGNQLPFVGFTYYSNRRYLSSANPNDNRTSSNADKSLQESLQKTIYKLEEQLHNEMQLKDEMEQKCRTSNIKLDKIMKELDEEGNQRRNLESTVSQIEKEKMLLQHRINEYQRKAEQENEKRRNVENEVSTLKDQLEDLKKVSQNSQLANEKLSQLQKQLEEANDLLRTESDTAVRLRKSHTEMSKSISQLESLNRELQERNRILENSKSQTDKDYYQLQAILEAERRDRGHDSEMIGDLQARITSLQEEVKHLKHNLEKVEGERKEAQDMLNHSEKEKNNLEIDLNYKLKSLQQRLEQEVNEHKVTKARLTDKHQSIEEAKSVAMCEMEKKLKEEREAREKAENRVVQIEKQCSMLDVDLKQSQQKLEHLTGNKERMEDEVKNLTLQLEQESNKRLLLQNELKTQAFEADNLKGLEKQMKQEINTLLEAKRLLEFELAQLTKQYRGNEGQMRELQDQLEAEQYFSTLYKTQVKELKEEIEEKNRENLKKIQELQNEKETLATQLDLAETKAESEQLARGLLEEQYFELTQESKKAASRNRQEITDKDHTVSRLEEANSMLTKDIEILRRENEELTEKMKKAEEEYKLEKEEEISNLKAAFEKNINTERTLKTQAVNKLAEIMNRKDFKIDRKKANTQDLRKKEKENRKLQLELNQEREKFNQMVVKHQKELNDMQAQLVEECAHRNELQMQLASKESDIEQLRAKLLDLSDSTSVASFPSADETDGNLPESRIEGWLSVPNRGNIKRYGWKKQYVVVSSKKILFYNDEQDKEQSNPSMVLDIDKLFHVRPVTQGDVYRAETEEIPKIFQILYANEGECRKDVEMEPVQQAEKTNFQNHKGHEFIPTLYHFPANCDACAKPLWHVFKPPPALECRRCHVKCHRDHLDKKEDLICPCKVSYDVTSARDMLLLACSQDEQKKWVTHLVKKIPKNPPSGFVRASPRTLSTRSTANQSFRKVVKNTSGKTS
Description: as §1, §2, §3, §4, §5

Chain of ROCK2 (O75116 whole entry): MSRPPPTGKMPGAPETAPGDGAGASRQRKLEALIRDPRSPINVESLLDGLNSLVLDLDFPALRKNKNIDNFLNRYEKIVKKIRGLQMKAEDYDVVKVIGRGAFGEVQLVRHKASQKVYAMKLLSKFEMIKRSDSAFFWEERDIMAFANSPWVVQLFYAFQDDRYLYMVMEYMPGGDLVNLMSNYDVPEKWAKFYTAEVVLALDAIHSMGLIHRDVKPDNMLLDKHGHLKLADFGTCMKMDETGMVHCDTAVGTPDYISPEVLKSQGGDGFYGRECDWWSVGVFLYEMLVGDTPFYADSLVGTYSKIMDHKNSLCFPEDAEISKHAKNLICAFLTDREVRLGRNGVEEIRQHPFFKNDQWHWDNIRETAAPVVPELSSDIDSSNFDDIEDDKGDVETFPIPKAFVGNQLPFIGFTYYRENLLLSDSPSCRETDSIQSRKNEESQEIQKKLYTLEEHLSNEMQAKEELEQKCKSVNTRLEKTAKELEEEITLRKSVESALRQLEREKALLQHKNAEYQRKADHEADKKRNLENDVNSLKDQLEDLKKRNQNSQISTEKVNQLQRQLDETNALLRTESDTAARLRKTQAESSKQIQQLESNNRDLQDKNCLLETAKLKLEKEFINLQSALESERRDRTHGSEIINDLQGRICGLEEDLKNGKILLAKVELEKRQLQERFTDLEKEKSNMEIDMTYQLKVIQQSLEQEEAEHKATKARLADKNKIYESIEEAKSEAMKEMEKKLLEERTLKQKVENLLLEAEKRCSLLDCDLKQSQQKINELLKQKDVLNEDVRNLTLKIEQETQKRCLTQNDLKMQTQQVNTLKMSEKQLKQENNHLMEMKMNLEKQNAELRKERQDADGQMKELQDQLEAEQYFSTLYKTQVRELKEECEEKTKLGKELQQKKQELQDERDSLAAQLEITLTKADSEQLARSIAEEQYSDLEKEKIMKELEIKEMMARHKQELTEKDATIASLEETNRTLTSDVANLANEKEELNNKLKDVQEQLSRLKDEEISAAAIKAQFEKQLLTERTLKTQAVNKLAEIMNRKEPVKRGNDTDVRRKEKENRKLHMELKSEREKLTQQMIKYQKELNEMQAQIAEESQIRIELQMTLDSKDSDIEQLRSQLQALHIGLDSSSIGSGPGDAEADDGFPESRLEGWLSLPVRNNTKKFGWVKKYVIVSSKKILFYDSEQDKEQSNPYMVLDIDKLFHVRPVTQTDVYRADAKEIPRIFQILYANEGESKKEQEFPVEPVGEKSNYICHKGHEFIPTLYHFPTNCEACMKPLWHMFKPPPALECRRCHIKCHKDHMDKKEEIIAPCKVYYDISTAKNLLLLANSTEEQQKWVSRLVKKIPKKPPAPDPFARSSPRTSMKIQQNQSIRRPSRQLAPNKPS

**Q.** What does the source list for `COc1cccc(C(CN)NC(=O)c2cc(-c3ccc4[nH]nc(C)c4c3)ccc2OC(F)(F)F)c1` (centres unmarked) [Compound 49]?
**A.** pIC50 [1]: 7.51; clearance [2]: 1.39 L/h/kg; half-life [2]: 4.82 h; Vd [2]: 8.31 L/kg; bioavailability [2]: 60%; AUC(0-t) [2]: 1330 nM·h; Cmax [2]: 0.157 µM; pIC50 [3]: 5.92

**Q.** Which results are given for `COc1cccc(C(CNS(C)(=O)=O)NC(=O)c2cccc(-c3ccc4[nH]nc(C)c4c3)c2)c1` (centres unmarked) [Compound 72]?
**A.** pIC50 [1]: 7.92; clearance [2]: 3.34 L/h/kg; half-life [2]: 0.62 h; Vd [2]: 1.79 L/kg; bioavailability [2]: 11%; AUC(0-t) [2]: 148 nM·h; Cmax [2]: 0.0994 µM; pIC50 [3]: 6.23

**Q.** With `CNCC(NC(=O)c1cc(-c2ccc3[nH]nc(C)c3c2)ccn1)c1cccc(OC)c1` (centres unmarked) [Compound 66] as the compound, how does the pIC50 [1] read?
**A.** 7.96

**Q.** And the clearance [2]?
**A.** 3.05 L/h/kg

**Q.** What about the half-life [2] of the same compound?
**A.** 2.74 h

**Q.** What about the Vd [2] of the same compound?
**A.** 10.5 L/kg

**Q.** And the bioavailability [2]?
**A.** 20.9%

**Q.** What about the AUC(0-t) [2] of the same compound?
**A.** 306 nM·h

**Q.** And the Cmax [2]?
**A.** 0.0507 µM

**Q.** And the pIC50 [3]?
**A.** 6.71

**Q.** With `Cc1n[nH]c2ccc(-c3cccc(C(=O)NC(CN)c4cccc(F)c4F)c3)cc12` (centres unmarked) [Compound 61] as the compound, how does the pIC50 [1] read?
**A.** 7.64

**Q.** What about the clearance [2] of the same compound?
**A.** 1.85 L/h/kg

**Q.** And the half-life [2]?
**A.** 2.37 h

**Q.** What about the Vd [2] of the same compound?
**A.** 4.72 L/kg

**Q.** And the bioavailability [2]?
**A.** 11%

**Q.** And the AUC(0-t) [2]?
**A.** 266 nM·h

**Q.** What about the Cmax [2] of the same compound?
**A.** 0.0556 µM

**Q.** What about the pIC50 [3] of the same compound?
**A.** 6.60

**Q.** With `COc1cccc(C(CN(C)C)NC(=O)c2cccc(-c3ccc4[nH]nc(C)c4c3)c2)c1` (centres unmarked) [Compound 36] as the compound, how does the pIC50 [1] read?
**A.** 8.00

**Q.** What about the clearance [2] of the same compound?
**A.** 3.05 L/h/kg

**Q.** And the half-life [2]?
**A.** 1.33 h

**Q.** And the Vd [2]?
**A.** 5.05 L/kg

**Q.** What about the bioavailability [2] of the same compound?
**A.** 10%

**Q.** What about the AUC(0-t) [2] of the same compound?
**A.** 156 nM·h

**Q.** And the Cmax [2]?
**A.** 0.0364 µM

**Q.** And the pIC50 [3]?
**A.** 7.14

**Q.** With `COc1cccc(C(CO)NC(=O)c2cccc(-c3ccc4[nH]nc(C)c4c3)c2)c1` (centres unmarked) [Compound 25] as the compound, how does the pIC50 [1] read?
**A.** 8.30

**Q.** And the clearance [2]?
**A.** 0.374 L/h/kg

**Q.** And the half-life [2]?
**A.** 2.91 h

**Q.** And the Vd [2]?
**A.** 1.15 L/kg

**Q.** What about the bioavailability [2] of the same compound?
**A.** 45%

**Q.** What about the AUC(0-t) [2] of the same compound?
**A.** 6300 nM·h

**Q.** And the Cmax [2]?
**A.** 1.18 µM

**Q.** What about the pIC50 [3] of the same compound?
**A.** 7.05

**Q.** With `COc1cccc(C(CO)NC(=O)c2cccc(-c3ccc4[nH]nc(F)c4c3)c2)c1` (centres unmarked) [Compound 26] as the compound, how does the pIC50 [1] read?
**A.** 7.80

**Q.** What about the clearance [2] of the same compound?
**A.** 0.84 L/h/kg

**Q.** And the half-life [2]?
**A.** 2.5 h

**Q.** And the Vd [2]?
**A.** 1.72 L/kg

**Q.** What about the bioavailability [2] of the same compound?
**A.** 51%

**Q.** And the AUC(0-t) [2]?
**A.** 3040 nM·h

**Q.** And the Cmax [2]?
**A.** 0.752 µM

**Q.** And the pIC50 [3]?
**A.** 6.95

**Q.** What does the source list for `COc1cccc(C(CN)NC(=O)c2cc(-c3ccc4[nH]nc(C)c4c3)ccn2)c1` (centres unmarked) [Compound 40]?
**A.** pIC50 [1]: 8.40; clearance [2]: 1.4 L/h/kg; half-life [2]: 3.58 h; Vd [2]: 6 L/kg; bioavailability [2]: 21%; AUC(0-t) [2]: 758 nM·h; Cmax [2]: 0.117 µM; pIC50 [3]: 7.24

**Q.** Which results are given for `COc1cccc(C(NC(=O)c2cccc(-c3ccc4[nH]nc(C)c4c3)c2)C(C)(C)N)c1` (centres unmarked) [Compound 64]?
**A.** pIC50 [1]: 7.34; clearance [2]: 5.3 L/h/kg; half-life [2]: 2.83 h; Vd [2]: 16.4 L/kg; bioavailability [2]: 12%; AUC(0-t) [2]: 100 nM·h; Cmax [2]: 0.017 µM; pIC50 [3]: 6.10

**Q.** With `Cc1cccc(C(CN)NC(=O)c2cccc(-c3ccc4[nH]nc(C)c4c3)c2)c1` (centres unmarked) [Compound 35] as the compound, how does the pIC50 [1] read?
**A.** 7.89

**Q.** What about the clearance [2] of the same compound?
**A.** 1.5 L/h/kg

**Q.** And the half-life [2]?
**A.** 3.83 h

**Q.** What about the Vd [2] of the same compound?
**A.** 6.78 L/kg

**Q.** And the bioavailability [2]?
**A.** 21%

**Q.** And the AUC(0-t) [2]?
**A.** 734 nM·h

**Q.** And the Cmax [2]?
**A.** 0.117 µM

**Q.** And the pIC50 [3]?
**A.** 6.50
